“And” between values parts separate entries of the source, which are not always exact repeats. Equal entries are not always repeated. Rh2(OAc)3 = dirhodium(II) triacetate, bound to the side-chain carboxylate
What was measured:
Lyn SH3 domain = target: T1, Lyn SH3 domain (Homo sapiens, UniProt P07948); assay: ITC binding of metallopeptides to Lyn SH3 domain
T1 construct: The lyn SH3 domain was amplified by PCR using Phusion DNA polymerase; GST (N, cleaved yes); made in house; host or cells: E. coli BL21 (DE3)
Text: The His96 is unique among Src-family sequences, and the His78 appears only in Hck and Lck. Individual amino-acid alterations are the only factors that might distinguish the nearly identical secondary structures and peptide-binding preferences of Src-family SH3 domains (cf. Fig. 1a and b). Based on a Src-family SH3-binding sequence (VSL12),[37] known to bind with similar affinity across Src-family SH3 domains,[38] we made metallopeptides with rhodium in different sites near the beginning of the SH3-binding peptide. […] The optimal metallopeptide, S2E^Rh, bound to Lyn with 6 nM affinity. The accuracy of ITC data is reduced for C values >1000 (C = [protein]/K d). Under these conditions the distribution of data points on the isotherm reduces the precision of the global fit. Since the enthalpic contributions to binding in the formation of the complexes described in this work were high, we were able to use a low protein concentration (4 μM) which ensured that our C values were well below this upper range. […] In broad terms, the thermodynamics—favourable enthalpy and unfavourable entropy—are consistent with previous examinations of peptide–SH3 binding (see Table S1 ^† for thermodynamic data).[39] Moving the location of the rhodium center toward the N-terminus, away from the histidine, led to a drop in binding affinity. The N13D^Rh metallopeptide, a convenient negative control with the rhodium center too far for histidine interactions, binds with micromolar activity, similar to simple SH3 binding of the parent peptide. We conclude that the vast affinity improvement is due to rhodium coordination to unique histidine residue(s).
(§1) All chemical reagents were purchased from Sigma-Aldrich and were used without further purification.
(§2) Peptide synthesis. All peptides were synthesized manually or with an AAPPTEC APEX 396 Automated Multipeptide Synthesizer using standard solid-phase Fmoc protocols.1,2 Peptides were prepared as C-terminal amides using Rink amide MBHA resin (AAPPTEC) and were acetylated at the N-terminus prior to cleavage from the resin. Peptides and metallopeptides were purified by reverse-phase HPLC.
HPLC separation. Reverse-phase HPLC was performed on a Shimadzu CBM-20A instrument with Phenomenex Jupiter 4μ Proteo 90A (250 × 15 mm preparative) and Phenomenex Jupiter 4μ Proteo 90A (250 × 4.6 mm analytical) columns. The columns were eluted with a gradient of acetonitrile in water (10-90%) (flow rates of 8 mL/min and 1 mL/min for preparative and analytical columns, respectively). Trifluoroacetic acid (0.1%) was added to all eluents. […]
(§3) ITC analysis. ITC experiments were carried out on a VP-ITC instrument (MicroCal) at 25 °C. Titrations of 275 μM peptide into 18 μM SH3 domain proteins were used for all titrations, except for the titration of S2ERh into Lyn SH3 domain, where the lower concentrations of 69 µM S2ERh peptide and 4 µM Lyn SH3 were used to attain a c-value for the titration within the accepted limts for ITC experiments ([…]).3
(§4) Heats of dilutions were measured independently for each experiment by titrating 275 μM peptide into buffer (20 mM phosphate buffer, pH 7, 150 mM NaCl, 1 mM EDTA). All experimental data were fitted using a one set of sites binding model in Origin software (MicroCal) except for the data with Hck SH3 domain. With Hck only, the non-peptide specific binding of dirhodium tetraacetate to Hck SH3 domain could not be treated as negligible, despite the very weak interaction (88 µM), due to the larger enthalpy contribution observed for non-specific binding to this SH3 domain, so the titrations of peptide into Hck were fitted using a 2 set of sites binding model where the stoichiometry for the second set of sites was fixed at 2.0. […]
(§5) Mass spectrometry. ESI-MS was performed on a Bruker Daltonics micrOTOF instrument.
Known compounds and proteins. Several metallopeptides (S2ERh, L3ERh, R5ERh, and 13DRh) were reported previously and […]

Yes SH3 domain = target: T2, Yes SH3 domain (Homo sapiens, UniProt P07947); assay: ITC binding to Yes SH3 domain; conditions: Yes SH3, ITC
T2 construct: fyn, yes, lck, and src SH3 protein domains were prepared following published procedures; made in house
Procedure: as §1, §2
(§6) HPLC separation. Reverse-phase HPLC was performed on a Shimadzu CBM-20A instrument with Phenomenex Jupiter 4μ Proteo 90A (250 × 15 mm preparative) and Phenomenex Jupiter 4μ Proteo 90A (250 × 4.6 mm analytical) columns. The columns were eluted with a gradient of acetonitrile in water (10-90%) (flow rates of 8 mL/min and 1 mL/min for preparative and analytical columns, respectively). Trifluoroacetic acid (0.1%) was added to all eluents.
(§7) FPLC separation. Analytical FPLC was performed on an ÄKTA instrument with Superdex Peptide PE 7.5/300 column. The column was equilibrated with buffer (150 mM NaCl, 50 mM Tris, pH 7.0) at flow rate of 0.2 mL/min.
as §3, §4, §5
(§8) Known compounds and proteins. Several metallopeptides (S2ERh, L3ERh, R5ERh, and 13DRh) were reported previously and were prepared by known protocols;4 alkyne-diazo 3,5 3-azido-7-hydroxycoumarin6 were synthesized following reported procedures; fyn, yes, lck, and src SH3 protein domains were prepared following published procedures.5 Abl, hck, and lyn SH3 domain plasmids were adapted from the previously reported genes;7 the gene templates were obtained from Addgene, ID

Abl SH3 domain = target: T3, Abl SH3 domain (Homo sapiens, UniProt P00519); assay: ITC binding to Abl SH3 domain
T3 construct: The abl SH3 domain was amplified by PCR using Phusion DNA polymerase; GST (N, cleaved yes); made in house; host or cells: E. coli BL21 (DE3)
Procedure: as §1, §2, §6, §7, §3, §4, §5, §8

Lck SH3 domain = target: T4, Lck SH3 domain (Homo sapiens, UniProt P06239); assay: ITC binding to Lck SH3 domain
T4 construct: fyn, yes, lck, and src SH3 protein domains were prepared following published procedures; made in house
Procedure: All chemical reagents were purchased from Sigma-Aldrich and were used without further purification. […]
as §3, §4
Known compounds and proteins. […]

T4 sequence (P06239 61-121 limits assumed): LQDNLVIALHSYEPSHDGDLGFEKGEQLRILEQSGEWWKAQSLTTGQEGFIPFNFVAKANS
T3 sequence (P00519 60-121): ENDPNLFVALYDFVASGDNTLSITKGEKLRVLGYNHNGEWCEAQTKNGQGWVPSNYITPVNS
T1 sequence (P07948 62-121): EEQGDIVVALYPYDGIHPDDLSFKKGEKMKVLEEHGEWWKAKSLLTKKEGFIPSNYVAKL
T2 sequence (P07947 91-152 limits assumed): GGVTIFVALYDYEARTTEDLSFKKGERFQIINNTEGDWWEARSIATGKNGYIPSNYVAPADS

AcVELARRPLPPLPN-NH2 [S2E^Rh]
Stoichiometry (Lyn SH3 domain): 1.1 | -TΔS (Lyn SH3 domain; 25 °C): 2.7 kcal/mol | ΔG (Lyn SH3 domain; 25 °C): -11.2 kcal/mol | ΔH (Lyn SH3 domain; 25 °C): –13.9 kcal mol-1 | ΔH (Lyn SH3 domain; 25 °C, listed as S2ERh): -13.9 kcal/mol | Stoichiometry (Yes SH3 domain): 0.79 | -TΔS (Yes SH3 domain; 25 °C): 9.1 kcal/mol | ΔG (Yes SH3 domain; 25 °C): -8.5 kcal/mol | ΔH (Yes SH3 domain; 25 °C): -17.6 kcal/mol | Stoichiometry (Abl SH3 domain): 1.5 | -TΔS (Abl SH3 domain; 25 °C): 10.6 kcal/mol | ΔG (Abl SH3 domain; 25 °C): -7.1 kcal/mol | ΔH (Abl SH3 domain; 25 °C): -17.8 kcal/mol | Stoichiometry (Lck SH3 domain): 1.1 | -TΔS (Lck SH3 domain; 25 °C): 2.6 kcal/mol | ΔG (Lck SH3 domain; 25 °C): -8.6 kcal/mol | ΔH (Lck SH3 domain; 25 °C): -11.2 kcal/mol

AcVELARRPLPPLPN-NH2 (Ac-VELARRPLPPLPN-NH2; also: Glu2 side-chain carboxylate bound to Rh2(OAc)3) [S2E^Rh, rhodium(II) metallopeptide made from S2E peptide (Ac…-NH2) and Rh2(tfa)(OAc)3]
Kd (Yes SH3 domain; 25 °C, read-out: SH3 Kd): 610 nM

AcVELARRPLPPLPN-NH2 (Ac-VE(Rh2(OAc)3)LARRPLPPLPN-NH2; also: metal complex: Glu2 carboxylate bound to dirhodium(II) triacetate) [S2E^Rh, rhodium(II) metallopeptide made from S2E peptide (Ac…-NH2) and Rh2(tfa)(OAc)3]
Kd (Lyn SH3 domain; 25 °C): 6 nM and 6.1 nM | Kd (Abl SH3 domain; 25 °C): 5750 nM | Kd (Lck SH3 domain; 25 °C): 481 nM
